For 8 compounds, T/C results are on record in PubChem BioAssay AID248 (DTP/NCI, 2004).

The test system of this experiment is L1210 leukemia ip in BDF1 mice, survival T/C. Briefly: NCI In Vivo Anticancer Drug Screen. Data for tumor model L1210 Leukemia (intraperitoneal) in B6D2F1 (BDF1) mice. The conditions noted are these: higher = longer survival. The method in brief: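 Tumor cells were implanted, animals were treated, and survival was followed. The result divides the treated measurement by the vehicle-control measurement.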

Where [1] appears, read: endpoint: mean survival time, dose: 12.5 mg/kg/injection, schedule: Q01DX009 (ip), vehicle: saline with Tween-80.

“And” between values parts separate entries of the source, which are not always exact repeats. Equal values may be shown once. Toxic doses and inconclusive results are not listed.

On to `COc1cc(NS(C)(=O)=O)ccc1Nc1c2ccccc2nc2ccccc12`, for which the T/C is, setting by setting: (endpoint: mean survival time, dose: 0.25 mg/kg/injection, schedule: Q03HX008 (ip), vehicle: other) 120 % of control; (endpoint: mean survival time, dose: 0.38 mg/kg/injection, schedule: Q01DX009 (ip), vehicle: saline with Tween-80) 185 % of control; (endpoint: mean survival time, dose: 0.75 mg/kg/injection, schedule: Q01DX009 (sc), vehicle: saline) 118 % of control; (endpoint: mean survival time, dose: 1.0 mg/kg/injection, schedule: Q01DX009 (ip), vehicle: Klucel (hydroxypropylcellulose) (HPC)) 160 % of control; (endpoint: mean survival time, dose: 1.25 mg/kg/injection, schedule: Q01DX009 (sc), vehicle: saline) 112 % of control; (endpoint: mean survival time, dose: 1.35 mg/kg/injection, schedule: Q01DX009 (ip), vehicle: acetone) 151 % of control. Further, the T/C runs as follows: (endpoint: mean survival time, dose: 1.5 mg/kg/injection, schedule: Q01DX009 (sc), vehicle: saline) 113 % of control; (endpoint: mean survival time, dose: 1.56 mg/kg/injection, schedule: Q01DX009 (ip), vehicle: saline with Tween-80) 236 % of control; (endpoint: mean survival time, dose: 1.8 mg/kg/injection, schedule: Q01DX009 (ip), vehicle: water) 150 % of control; (endpoint: mean survival time, dose: 1.9 mg/kg/injection, schedule: Q01DX001 (ip), vehicle: other) 116 % of control; (endpoint: mean survival time, dose: 2.0 mg/kg/injection, schedule: Q03HX008 (ip), vehicle: other) 203 % of control; (endpoint: mean survival time, dose: 2.05 mg/kg/injection, schedule: Q01DX009 (ip), vehicle: Klucel (hydroxypropylcellulose) (HPC)) 155 % of control. Further, the T/C (endpoint: mean survival time, dose: 2.05 mg/kg/injection, schedule: Q01DX009 (ip), vehicle: acetone) was 187 % of control; the T/C (endpoint: mean survival time, dose: 2.5 mg/kg/injection, schedule: Q01DX009 (sc), vehicle: saline) was 110 % of control and 121 % of control; the T/C (endpoint: mean survival time, dose: 3.0 mg/kg/injection, schedule: Q01DX009 (ip), vehicle: Klucel (hydroxypropylcellulose) (HPC)) is 176 % of control; the T/C (endpoint: mean survival time, dose: 3.0 mg/kg/injection, schedule: Q01DX009 (ip), vehicle: water) was 174 % of control; the T/C (endpoint: mean survival time, dose: 3.0 mg/kg/injection, schedule: Q01DX009 (sc), vehicle: saline) was 114 % of control; the T/C (endpoint: mean survival time, dose: 3.07 mg/kg/injection, schedule: Q01DX009 (ip), vehicle: Klucel (hydroxypropylcellulose) (HPC)) was 157 % of control. Also, the T/C by setting is: (endpoint: mean survival time, dose: 3.07 mg/kg/injection, schedule: Q01DX009 (ip), vehicle: acetone) 188 % of control; (endpoint: mean survival time, dose: 3.12 mg/kg/injection, schedule: Q01DX009 (ip), vehicle: acetone) 188 % of control; (endpoint: mean survival time, dose: 3.12 mg/kg/injection, schedule: Q01DX009 (ip), vehicle: saline with Tween-80) 178 % of control and 216 % of control; (endpoint: mean survival time, dose: 3.75 mg/kg/injection, schedule: Q01DX001 (ip), vehicle: other) 124 % of control; (endpoint: mean survival time, dose: 4.0 mg/kg/injection, schedule: Q01DX009 (ip), vehicle: Klucel (hydroxypropylcellulose) (HPC)) 154 % of control; (endpoint: mean survival time, dose: 5.0 mg/kg/injection, schedule: Q01DX009 (ip), vehicle: saline with Tween-80) 153 % of control. In addition, the T/C (endpoint: mean survival time, dose: 5.0 mg/kg/injection, schedule: Q01DX009 (ip), vehicle: water) is 113 % of control; the T/C (endpoint: mean survival time, dose: 5.0 mg/kg/injection, schedule: Q01DX009 (sc), vehicle: saline) is 123 % of control; the T/C (endpoint: mean survival time, dose: 6.0 mg/kg/injection, schedule: Q01DX009 (ip), vehicle: Klucel (hydroxypropylcellulose) (HPC)) was 150 % of control; the T/C (endpoint: mean survival time, dose: 6.25 mg/kg/injection, schedule: Q01DX009 (ip), vehicle: acetone) was 186 % of control; the T/C (endpoint: mean survival time, dose: 7.5 mg/kg/injection, schedule: Q04DX003 (ip), vehicle: other) was 156 % of control; the T/C (endpoint: mean survival time, dose: 8.0 mg/kg/injection, schedule: Q01DX009 (ip), vehicle: other) is 91 % of control. Also, the T/C (endpoint: mean survival time, dose: 8.4 mg/kg/injection, schedule: Q01DX009 (ip), vehicle: water) was 89 % of control; the T/C (endpoint: mean survival time, dose: 10.0 mg/kg/injection, schedule: Q01DX009 (ip), vehicle: saline with Tween-80) was 207 % of control; the T/C (endpoint: mean survival time, dose: 12.5 mg/kg/injection, schedule: Q01DX009 (ip), vehicle: acetone) is 90 % of control; the T/C under setting [1] is 93 % of control; the T/C (endpoint: mean survival time, dose: 12.5 mg/kg/injection, schedule: Q01DX009 (ip), vehicle: saline) is 103 % of control; the T/C (endpoint: mean survival time, dose: 15.0 mg/kg/injection, schedule: Q04DX003 (ip), vehicle: other) is 294 % of control. For the same compound, the T/C is 160 % of control (endpoint: mean survival time, dose: 18.75 mg/kg/injection, schedule: Q01DX001 (ip), vehicle: saline with Tween-80); 152 % of control (endpoint: mean survival time, dose: 25.0 mg/kg/injection, schedule: Q01DX001 (ip), vehicle: Klucel (hydroxypropylcellulose) (HPC)); 254 % of control (endpoint: mean survival time, dose: 30.0 mg/kg/injection, schedule: Q01DX001 (ip), vehicle: Klucel (hydroxypropylcellulose) (HPC)); 91 % of control (endpoint: mean survival time, dose: 30.0 mg/kg/injection, schedule: Q01DX001 (ip), vehicle: other); 178 % of control and 270 % of control (endpoint: mean survival time, dose: 37.5 mg/kg/injection, schedule: Q01DX001 (ip), vehicle: saline with Tween-80); 160 % of control (endpoint: mean survival time, dose: 45.0 mg/kg/injection, schedule: Q01DX001 (ip), vehicle: Klucel (hydroxypropylcellulose) (HPC)). The T/C is 158 % of control and 175 % of control (endpoint: mean survival time, dose: 50.0 mg/kg/injection, schedule: Q01DX001 (ip), vehicle: saline); 160 % of control and 255 % of control (endpoint: mean survival time, dose: 60.0 mg/kg/injection, schedule: Q01DX001 (ip), vehicle: Klucel (hydroxypropylcellulose) (HPC)); 202 % of control and 236 % of control (endpoint: mean survival time, dose: 75.0 mg/kg/injection, schedule: Q01DX001 (ip), vehicle: saline); 232 % of control (endpoint: mean survival time, dose: 150.0 mg/kg/injection, schedule: Q01DX001 (ip), vehicle: saline with Tween-80); 121 % of control (endpoint: median survival time, dose: 1.0 mg/kg/injection, schedule: Q01DX009 (sc), vehicle: other); 102 % of control (endpoint: median survival time, dose: 2.0 mg/kg/injection, schedule: Q01DX009 (oral), vehicle: other). Besides, the T/C reads like this: (endpoint: median survival time, dose: 4.0 mg/kg/injection, schedule: Q01DX009 (oral), vehicle: other) 109 % of control; (endpoint: median survival time, dose: 8.0 mg/kg/injection, schedule: Q01DX009 (oral), vehicle: other) 120 % of control; (endpoint: median survival time, dose: 8.0 mg/kg/injection, schedule: Q01DX009 (sc), vehicle: other) 98 % of control.

In the case of `CCCCCCCCCCCCOC(=O)C[n+]1cccc(C(=O)NCc2ccccc2)c1`, the T/C reads like this: (endpoint: mean survival time, dose: 6.25 mg/kg/injection, schedule: Q01DX009 (ip), vehicle: saline with Tween-80) 98 % of control; under setting [1], 94 % of control; (endpoint: mean survival time, dose: 25.0 mg/kg/injection, schedule: Q01DX009 (ip), vehicle: saline with Tween-80) 102 % of control.

Turning to `CCOC(=O)C(C)(C)CCl`, the T/C reads like this: (endpoint: mean survival time, dose: 100.0 mg/kg/injection, schedule: Q01DX009 (ip), vehicle: Klucel (hydroxypropylcellulose) (HPC)) 100 % of control; (endpoint: mean survival time, dose: 200.0 mg/kg/injection, schedule: Q01DX009 (ip), vehicle: Klucel (hydroxypropylcellulose) (HPC)) 94 % of control; (endpoint: mean survival time, dose: 400.0 mg/kg/injection, schedule: Q01DX009 (ip), vehicle: Klucel (hydroxypropylcellulose) (HPC)) 103 % of control.

Turning to `CN/N=C/c1[nH]c(=O)[nH]c(=O)c1C`, the T/C runs as follows: (endpoint: mean survival time, dose: 100.0 mg/kg/injection, schedule: Q01DX001 (ip), vehicle: saline) 93 % of control; (endpoint: mean survival time, dose: 200.0 mg/kg/injection, schedule: Q01DX001 (ip), vehicle: saline) 96 % of control; (endpoint: mean survival time, dose: 400.0 mg/kg/injection, schedule: Q01DX001 (ip), vehicle: saline) 104 % of control.

As to `CC(C)(O)C#N`, the T/C (endpoint: mean survival time, dose: 5.0 mg/kg/injection, schedule: Q01DX001 (ip), vehicle: saline) is 108 % of control; the T/C (endpoint: mean survival time, dose: 10.0 mg/kg/injection, schedule: Q01DX001 (ip), vehicle: saline) was 102 % of control; the T/C (endpoint: mean survival time, dose: 15.0 mg/kg/injection, schedule: Q01DX001 (ip), vehicle: saline) is 104 % of control.

Turning to `Nc1nc([Se]c2ccc([N+](=O)[O-])cc2)c2ncn(C3CC(O)C(CO)O3)c2n1` (stereo unspecified), the T/C (endpoint: mean survival time, dose: 100.0 mg/kg/injection, schedule: Q01DX005 (ip), vehicle: saline) is 100 % of control and the T/C (endpoint: mean survival time, dose: 200.0 mg/kg/injection, schedule: Q01DX005 (ip), vehicle: saline) was 100 % of control.

Turning to `O=C1OC(=O)C(Cl)=C1Cl`, the T/C (endpoint: mean survival time, dose: 25.0 mg/kg/injection, schedule: Q04DX002 (ip), vehicle: saline with Tween-80) is 97 % of control; the T/C (endpoint: mean survival time, dose: 50.0 mg/kg/injection, schedule: Q04DX002 (ip), vehicle: saline with Tween-80) is 93 % of control; the T/C (endpoint: mean survival time, dose: 100.0 mg/kg/injection, schedule: Q04DX002 (ip), vehicle: saline with Tween-80) is 104 % of control and 112 % of control.

On to `CC1(C)OCC(C(O)C(O)C2COC(C)(C)O2)O1` (stereo unspecified), for which the T/C reads like this: (endpoint: mean survival time, dose: 100.0 mg/kg/injection, schedule: Q04DX002 (ip), vehicle: saline) 96 % of control; (endpoint: mean survival time, dose: 200.0 mg/kg/injection, schedule: Q04DX002 (ip), vehicle: saline) 104 % of control; (endpoint: mean survival time, dose: 400.0 mg/kg/injection, schedule: Q04DX002 (ip), vehicle: saline) 101 % of control.
